{"source": "patent US8609147B2", "about": "“Use of deuterium oxide for treatment of herpes virus-based diseases of the skin” (D2 Bioscience Group Ltd., priority 2007, dated 2013)", "tested_on": "HSV-1", "assay": "Efficacy in a cell culture test: HSV-1 infected human keratinocyte primary cultures, virus count by transmission electron microscopy", "type": "cell-based", "conditions": "cell culture medium containing 35 wt % D2O; 3 days after infection with HSV-1; 20 keratinocyte cells evaluated", "experimental": "After a closed monolayer had formed in the cell culture dish and after desmosomes had developed, human keratinocyte primary cultures produced according to H. M. Reinl et al. (J. Invest. Dermatol. 1995; 105(2):291-5) were incubated with cell culture medium additionally containing 35 wt % D2O (sample) and/or H2O (controls). On the day of incubation, the sample and controls were infected with HSV-1. The infection was accomplished by adding the virus to the cell culture medium (10^7 viruses per cell culture dish in 1 mL cell culture medium). After 3 days (after infection), the sample and control groups were tested for the average number of viral particles per cell. The virus count was performed using a transmission electron microscope according to standard fixation and staining methods (glutaraldehyde and osmium tetroxide). In each case, 20 randomly selected keratinocyte cells from the sample group and the control group were evaluated with regard to the viral particles contained in them.", "data": [{"smiles": "[2H]O[2H]", "note": "[D2O, deuterium oxide]", "values": [{"measurement": "average virus count (viral particles per cell)", "value": "10±4"}]}]}
